According to patent US20240197716A1, “TREATMENTS FOR CUSHING'S SYNDROME THAT DO NOT SIGNIFICANTLY AFFECT CARDIAC RHYTHMS” (Corcept Therapeutics Incorporated, priority 2022, published 2024):
“And” between values parts separate entries of the source, which are not always exact repeats. Equal values may be shown once.

Tests used:
[1] = test system: cardiac repolarization in healthy volunteers; experiment: Thorough QT/QTc (TQT) study (NCT04795479), cardiodynamic Holter ECG; details: for ΔΔQTcF Estimate (msec) (90% CI), predicted at geometric mean Cmax: PK/QTc population
Description: These studies included a randomized, partial double-blind, placebo- and positive-controlled, multiple-dose, 4-way crossover, thorough QT/QTc (TQT) study to investigate the effect of relacorilant on cardiac repolarization. These studies measured placebo-corrected change-from-baseline QTcF (ΔΔQTcF); change-from-baseline of QTcF, HR, and PR and QRS intervals (ΔQTcF, ΔHR, ΔPR, and ΔQRS); placebo-corrected change-from-baseline of HR, and PR and QRS intervals (ΔΔHR, ΔΔPR, and ΔΔQRS); categorical outliers for QTcF, HR, and PR and QRS intervals; the frequency of treatment-emergent changes of T-wave morphology and presence of U-waves; PK parameters of relacorilant and its metabolites (CORT125337, CORT125336, and CORT125295) and moxifloxacin; safety profiles, including AEs/SAEs, physical examination, clinical chemistry, hematology, urinalysis, ECG, and vital signs.
A phase 1, randomized, partial double-blind, crossover thorough QT study (NCT04795479) to assess the effect of multiple doses of relacorilant on cardiac repolarization in healthy volunteers. Participants were randomized to dosing sequences to receive relacorilant at therapeutic (400 mg QD, n=25) or supra-therapeutic (800 mg QD, n=28) doses, or placebo (n=29) for 5 days. Moxifloxacin (400 mg single dose, n=28) was used as a positive control.
Each subject received 4 treatments in a randomized sequence during the study period. Each dosing consisted of 8 capsules (except for moxifloxacin on Day 5), including: • Treatment T: Multiple oral doses of 400 mg relacorilant (4 capsules)+placebo for relacorilant (4 capsules) once daily for 5 days; • Treatment ST: Multiple oral doses of 800 mg relacorilant (8 capsules) once daily for 5 days; • Treatment P: Multiple oral doses of placebo for relacorilant (8 capsules) once daily for 5 days; • Treatment M: Multiple oral doses of placebo for relacorilant (8 capsules) once daily for 4 days and a final single oral dose of 400 mg moxifloxacin (one tablet) on Day 5.
In a portion of present study conducted in healthy subjects, a single dose of moxifloxacin (400 mg; Treatment M) on the last day of its respective treatment period was included as a positive control to determine the sensitivity of the study to detect small QTc changes. Relacorilant doses included both a therapeutic dose level (400 mg; Treatment T) and a supra-therapeutic dose level (800 mg; Treatment ST). The study was blinded to subjects, investigator, study staff, and sponsor with respect to relacorilant (Treatments T and ST) and placebo for relacorilant (Treatment P); it was open-labeled for moxifloxacin (Treatment M). Enrolled subjects were randomized to one of twelve (12) dosing sequences to receive 4 different treatments according to the assigned dosing sequence as shown below:
In each period, subjects were admitted to the clinical site in the morning of Day-1 and stayed in the site until the morning of Day 6. In the study periods when subjects were randomized to Treatment T, ST, or P, the applicable study product (400 mg or 800 mg relacorilant or placebo for relacorilant) were taken once daily in the morning for 5 consecutive days. During the dosing period of positive control (Treatment M), placebo for relacorilant were administered on Days 1 to 4 to align with the dosing schedule for the other three treatments and moxifloxacin were administered in an open-labeled manner as a single dose in the morning of Day 5. Therefore, the treatment on Days 1 to 4 were double-blinded; it was not known before the morning on Day 5 whether or not a subject was allocated to receive moxifloxacin. Each dosing period (from Periods 2 to 4) was separated from the previous period by a washout period of at least 10 days from Day 6 of the previous period to Day 1 (first dose) of the subsequent period to prevent a carryover effect. The final visit was on Day 6 of Period 4. A safety phone follow-up was scheduled at 7 days (±2 days) post the final visit/early termination (ET) visit.

patients with CS = experiment: Phase 2 CS study (NCT02804750), ECG / QTcF; format: in vivo, human
Method: A single-arm, open-label phase 2 study (NCT02804750) in patients with CS. 17 patients received low-dose relacorilant (100-200 mg QD) for 12 weeks; 18 patients received high-dose relacorilant (250-400 mg QD) for 16 weeks.
In all studies, ECG data were collected and the heart rate-corrected QT interval using Fridericia's formula (QTcF) was calculated. Participants with a family history of or risk factors for torsades de pointes or with a prolonged QT interval at screening were not eligible to participate. Exposure-response analysis of the effect of relacorilant on the heart-rate corrected QT interval (QTc) was conducted using a linear model with an intercept.
In a 3-part, single-center, First-in-Human study (NCT03508635, “phase 1 study”), 103 healthy volunteers received single or multiple ascending doses of relacorilant (up to 500 mg QD) for up to 14 days; 24 received placebo. In a randomized, partial double-blind, crossover Thorough QT study (NCT04795479, “TQT study”), the effect of multiple therapeutic (400 mg QD, n=25) and supra-therapeutic (800 mg QD, n=28) doses of relacorilant on cardiac repolarization was studied in healthy volunteers. A single dose of moxifloxacin (400 mg, n=28) was used as a positive control; 29 participants received placebo. In a single-arm, open-label phase 2 study (NCT02804750, “CS study”), 17 patients with CS received low-dose relacorilant (100-200 mg QD) for 12 weeks and 18 patients received high-dose relacorilant (250-400 mg QD) for 16 weeks. In all studies, ECG data were collected, and the heart rate-corrected QT interval using Fridericia's formula (QTcF) was assessed.

[2] = human, in vivo
Method: A phase 1, 3-part, single-center, First-in-Human study (NCT03508635) included 103 healthy volunteers who received single or multiple ascending doses (SAD/MAD) of relacorilant (up to 500 mg QD) for up to 14 days; 24 received placebo.
Relacorilant plasma concentration and QTcF data in the SAD and MAD phases were best fit with a linear model with treatment-specific intercepts. For both phases, the model-estimated slopes (90% CI) were slightly negative (SAD: −0.59[−2.14, 0.97]×10^−3 msec/ng/ml; MAD: −2.34[−3.16 to −1.52]×10^−3 msec/ng/ml). Therefore, a concentration-dependent effect of relacorilant on QTc prolongation was not identified.

## Cn1cc(S(=O)(=O)N2CCC3=Cc4c(cnn4-c4ccc(F)cc4)C[C@]3(C(=O)c3cc(C(F)(F)F)ccn3)C2)cn1 [relacorilant, ((R)-(1-(4-fluorophenyl)-6-((1-methyl-1H-pyrazol-4-yl)sulfonyl)-4,4a,5,6,7,8-hexahydro-1H-pyrazolo[3,4-g]isoquinolin-4a-yl)(4-(trifluoromethyl)pyridine-2-yl)methanone)]
[1]; 400 mg (Day 5)
  ΔΔQTcF Estimate (msec) (90% CI), predicted at geometric mean Cmax: -3.02 ms
[1]; 400 mg (Day 5), listed as Relacorilant
  ΔΔQTcF Estimate (msec) (90% CI), predicted at geometric mean Cmax: −3.02 (−4.16, −1.88)^1 msec
[1]; 400 mg and 800 mg QD
  effect on HR: did not have a clinically relevant effect on HR
[1]; 800 mg (Day 5)
  ΔΔQTcF Estimate (msec) (90% CI), predicted at geometric mean Cmax: -3.87 ms
[1]; 800 mg (Day 5), listed as Relacorilant
  ΔΔQTcF Estimate (msec) (90% CI), predicted at geometric mean Cmax: −3.87 (−5.56, −2.17)^1 msec
[1]; 2 hours post-dose on Day 5, 800 mg treatment
  LS mean placebo-corrected ΔHR, highest across post-dose time points: 2.4 bpm
[1]; 12 hours post-dose on Day 1, 800 mg treatment
  LS mean placebo-corrected ΔHR, lowest across post-dose time points: −3.2 bpm
[1]; Across all 3 studies (First-in-Human, TQT, and CS studies)
  tolerability: well tolerated
[1]; concentration-QTc modeling, plasma concentrations up to ˜4500 ng/mL
  effect on ΔΔQTcF exceeding the 10-msec threshold: excluded
[1]; linear mixed-effects model
  estimated slope (90% CI) of plasma concentration in the concentration-QTc relationship: −0.97(−1.68, −0.25) ×10^−3 msec/ng/ml and −0.97 ×10^−3 msec/ng/ml
[1]; therapeutic (400 mg) and supra-therapeutic (800 mg) doses
  effect on ECG parameters: no adverse effects on ECG parameters
Patients with CS; CS study
  hypokalemia: no instances
Patients with CS; high-dose group
  abnormal sinus tachycardia, post-baseline ECG finding: 11.1%
Patients with CS; high-dose group (18 patients)
  abnormal sinus tachycardia, post-baseline ECG finding: 2 patients
Patients with CS; high-dose group, 250 to 400 mg/day, FIG. 6B
  change in median QTcF: No significant changes
Patients with CS; low-dose group
  abnormal sinus tachycardia, post-baseline ECG finding: 17.6%
Patients with CS; low-dose group (17 patients)
  abnormal sinus tachycardia, post-baseline ECG finding: 3 patients
Patients with CS; low-dose group, 100 to 200 mg/day, FIG. 6A
  change in median QTcF: No significant changes
[2]
  observed range of plasma concentrations, upper end: approximately 4000 ng/ml
  time of Cmax: 2 h
